# System: Plasmodium berghei
# Test: Antimalarial activity against Plasmodium berghei
# Assay type: functional
row,Compound,log(1/C)
1,CCCCN(CCCC)CCC(O)c1cc(-c2ccc(C(F)(F)F)cc2)nc(-c2ccc(C(F)(F)F)cc2)c1 (stereo not drawn),4.57
2,CCCCN(CCCC)CC(O)c1cc(C(C)(C)C)nc2c1cc(C)c1ccccc12 (stereo not drawn),2.32
3,OC(CC1CCCCN1)c1cc2ccc(C(F)(F)F)cc2c2ccccc12 (stereo not drawn),3.43
4,Cc1ccc(-c2cc(C(O)CC3CCCCN3)c3cc(C)cc(C)c3n2)cc1 (stereo not drawn),3.11
5,CCCCN(CCCC)CC(O)c1cc(-c2ccc(Cl)cc2Cl)nc2c(Cl)cc(Cl)cc12 (stereo not drawn),3.66
6,CCCCN(CCCC)CC(O)c1cc(C(F)(F)F)nc2c(C(F)(F)F)cccc12 (stereo not drawn),3.6
7,CC(C)NCC(O)c1cc2ccc(C(F)(F)F)cc2c2cc(C(F)(F)F)ccc12 (stereo not drawn),3.8
8,Cc1cc(C)c2nc(-c3ccc(Cl)cc3)cc(C(O)CC3CCCCN3)c2c1 (stereo not drawn),4.04
9,Cc1ccc2c(C(O)CC3CCCCN3)cc3ccc(C(F)(F)F)cc3c2c1 (stereo not drawn),3.16
10,OC(CN1CCCCC1)c1cc(-c2ccc(Cl)cc2)nc2c(Cl)cc(Cl)cc12 (stereo not drawn),3.49
11,Cc1ccc(-c2cc(C(O)CC3CCCCN3)c3ccccc3n2)cc1 (stereo not drawn),2.38
12,CCCCN(CCCC)CC(O)c1cc2ccc(Cl)cc2nc1-c1ccc(Cl)cc1 (stereo not drawn),2.2
13,OC(CC1CCCCN1)c1cc2ccc(Cl)cc2c2cc(Cl)c(Cl)cc12 (stereo not drawn),3.86
14,CCCCN(CCCC)CC(O)c1c(C)c(-c2ccc(C)cc2C)nc2c1cc(Cl)c1ccccc12 (stereo not drawn),3.05
15,CCCCNCC(O)c1cc(C(F)(F)F)nc2c(C(F)(F)F)cccc12 (stereo not drawn),3.65
16,CCCCN(CCCC)CC(O)c1cc(-c2ccc(I)cc2)nc2ccc(I)cc12 (stereo not drawn),4.22
17,CCCCN(CCCC)CC(O)c1cc(Cl)cc2ccc(-c3ccc(Cl)cc3)nc12 (stereo not drawn),2.9
18,CCCNCC(O)c1cc2ccc(C(F)(F)F)cc2c2cc(C(F)(F)F)ccc12 (stereo not drawn),4.48
19,CCCCN(CCCC)CCC(O)c1cc(C(F)(F)F)nc2ccc(C(F)(F)F)cc12 (stereo not drawn),3.31
20,CCN(CC)CC(O)c1cc(-c2ccc(OC)c(OC)c2)nc2ccc(Cl)cc12 (stereo not drawn),3.12
21,CCCCN(CCCC)CC(O)c1cc2ccccc2c2c(Cl)cccc12 (stereo not drawn),2.77
22,CCN(CC)CC(O)c1cc(-c2ccc(Cl)c(Cl)c2)nc(-c2ccc(Cl)c(Cl)c2)c1 (stereo not drawn),3.04
23,COc1ccc2nc(C(F)(F)F)cc(C(O)CC3CCCCN3)c2c1 (stereo not drawn),2.97
24,CCCCCN(CCCCC)CC(O)c1cc(-c2ccc(C(F)(F)F)cc2)nc(-c2ccc(C(F)(F)F)cc2)c1 (stereo not drawn),3.97
25,OC(CC1CCCCN1)c1cc(-c2ccccc2)nc2cc(Cl)ccc12 (stereo not drawn),2.72

row,Compound,log(1/C)
1,CCCCN(CCCC)CC(O)c1cc2c(Cl)cc(Cl)cc2c2ncccc12 (stereo not drawn),2.94
2,CCN(CC)CC(O)c1cc(Cl)cc2ccc(-c3ccc(Cl)cc3)nc12 (stereo not drawn),2.12
3,CCCCN(CCCC)CC(O)c1cccc2cc3c(Cl)cccc3cc12 (stereo not drawn),2.1
4,CCCCCN(CCCCC)CC(O)c1cccc2c1cc(Cl)c1ccccc12 (stereo not drawn),2.14
5,CCCCN(CCCC)CC(O)c1cc2c(Cl)cc(Cl)cc2c2ccsc12 (stereo not drawn),3.2
6,CCCCN(CCCC)CC(O)c1c2ccccc2c(Cl)c2ccccc12 (stereo not drawn),3.51
7,Cc1ccc2nc(-c3ccccc3)cc(C(O)CC3CCCCN3)c2c1 (stereo not drawn),2.47
8,OC(CC1CCCCN1)c1cc2c(Cl)c(Cl)ccc2c2cc(C(F)(F)F)ccc12 (stereo not drawn),4.45
9,CCCCN(CCCC)CC(O)c1cc2ccccc2c2cc(Cl)ccc12 (stereo not drawn),2.77
10,OC(CC1CCCCN1)c1cc(-c2ccc(F)cc2)nc2cc(F)ccc12 (stereo not drawn),2.32
11,CCCN(CCC)CC(O)c1cc2ccc(Br)cc2c2cc(Br)ccc12 (stereo not drawn),3.95
12,CCCCN(CCCC)CC(O)c1cc(-c2ccc(Br)cc2)nc(-c2ccc(C(F)(F)F)cc2)c1 (stereo not drawn),3.62
13,CCCCN(CCCC)CC(O)c1c(C)c2ccccc2c2ccccc12 (stereo not drawn),2.79
14,CCCCCCCN(CCCCCCC)CC(O)c1cccc2c1ccc1ccc(Cl)cc12 (stereo not drawn),2.54
15,OC(CC1CCCCN1)c1cc2ccccc2c2c(C(F)(F)F)cccc12 (stereo not drawn),3.73
16,CCCCN(CCCC)CC(O)c1cc2c(Cl)cccc2c2ccccc12 (stereo not drawn),2.65
17,OC(CC1CCCCN1)c1cc2cc(C(F)(F)F)cc(C(F)(F)F)c2c2cc(Cl)c(Cl)cc12 (stereo not drawn),4.47
18,CCOc1ccc2nccc(C(O)C[N+]34CCC(CC3)C(CC)C4)c2c1 (stereo not drawn),1.97
19,CCCCCCCN(CCCCCCC)CC(O)c1cccc2c1ccc1cc(Cl)c(Cl)cc12 (stereo not drawn),2.55
20,CN1CCCCC1CC(O)c1cc(-c2ccccc2)nc2ccc(Cl)cc12 (stereo not drawn),2.7
21,CCCCCCCN(CCCCCCC)CC(O)c1cc2ccc(Br)cc2c2cc(Br)ccc12 (stereo not drawn),3.45
22,CCCCN(CCCC)CC(O)c1cc(-c2ccccc2)nc(-c2ccccc2)c1 (stereo not drawn),2.51
23,Cc1ccc(-c2cc(C(O)CC3CCCCN3)c3cc(F)ccc3n2)cc1 (stereo not drawn),2.34
24,OC(CC1CCCCN1)c1c2c(nc3c(Cl)cc(Cl)cc13)-c1cccc(Cl)c1CC2 (stereo not drawn),3.6
25,Cc1cc(C)c2nc(Oc3ccc(Cl)cc3)cc(C(O)CC3CCCCN3)c2c1 (stereo not drawn),2.72

row,Compound,log(1/C)
1,CCCCCCCN(CCCCCCC)CC(O)c1cc2c(Cl)cc(Cl)cc2c2ccsc12 (stereo not drawn),3
2,CCCCCCN(CCCCCC)CC(O)c1cc(-c2ccc(Cl)cc2)nc2c(C)cc(C)cc12 (stereo not drawn),3.75
3,CCCCN(CCCC)CC(O)c1cc(Cc2ccccc2)nc2c(Cl)cccc12 (stereo not drawn),2.3
4,CCCCCCN(CCCCCC)CC(O)c1cccc2c1cc(Cl)c1ccccc12 (stereo not drawn),2.39
5,CCCCN(CCCC)CC(O)c1cc(-c2ccc(Cl)c(Cl)c2)cc2cc(Cl)ccc12 (stereo not drawn),4.81
6,CCNCC(O)c1cc2ccc(C(F)(F)F)cc2c2cc(C(F)(F)F)ccc12 (stereo not drawn),4.39
7,OC(CC1CCCCN1)c1cc2cc(Cl)ccc2c2ccc(C(F)(F)F)cc12 (stereo not drawn),3.25
8,CCN(CC)CC(O)c1cc(-c2ccccc2)nc2ccc(OC)cc12 (stereo not drawn),2.44
9,CN(Cc1ccccc1)CC(O)c1cc(-c2cccs2)nc2cccc(Br)c12 (stereo not drawn),2.26
10,CCCCCCCCN(CCCCCCCC)CC(O)c1ccc(Br)c2ccccc12 (stereo not drawn),2.24
11,CCCCN(CCCC)CC(O)c1cc(-c2ccc(Cl)c(Cl)c2)nc2cc(OC)ccc12 (stereo not drawn),3.21
12,CCCCN(CCCC)CC(O)c1cc(C(=O)c2ccccc2)nc2c(Cl)cc(Cl)cc12 (stereo not drawn),3.03
13,OC(CC1CCCCN1)c1cc2c(Cl)cc(Cl)cc2c2cc(Br)ccc12 (stereo not drawn),3.81
14,CCCCCCCN(CCCCCCC)CC(O)c1cccc2c3ccccc3c3ccccc3c12 (stereo not drawn),2.28
15,OC(CNC1CCC1)c1cc(-c2ccc(C(F)(F)F)cc2)nc(-c2ccc(C(F)(F)F)cc2)c1 (stereo not drawn),3.85
16,CCCCN(CCCC)CC(O)c1cc2cc(C(F)(F)F)ccc2c2ccccc12 (stereo not drawn),3.79
17,CCCCNCCC(O)c1c2ccccc2c(Cl)c2ccccc12 (stereo not drawn),2.49
18,CCCCN(CCCC)CC(O)c1c(Cl)cc2ccc(-c3ccc(Cl)cc3)nc2c1Cl (stereo not drawn),3.02
19,OC(CC1CCCCN1)c1cc2cc(C(F)(F)F)cc(C(F)(F)F)c2c2cc(C(F)(F)F)ccc12 (stereo not drawn),4.47
20,CCCCCCCN(CCCCCCC)CC(O)c1cccc2cc3ccccc3cc12 (stereo not drawn),2.99
21,CCCCCCCN(CCCCCCC)CC(O)c1cc2c(Cl)cc(Cl)cc2c2cc(Cl)sc12 (stereo not drawn),2.67
22,CCN(CC)CC(O)c1cc(-c2ccc(Cl)c(Cl)c2)nc2ccc(OC)cc12 (stereo not drawn),3.15
23,OC(CC1CCCCN1)c1cc2cc(Br)ccc2c2cc(Br)ccc12 (stereo not drawn),4.13

# Source: ChEMBL document CHEMBL3227967, “Quantitative structure-activity relationships in 1-aryl-2-(alkylamino)ethanol antimalarials” (J Med Chem, 1979)
